Experimental findings from PubChem BioAssay AID1259407 (Chemical Carcinogenesis Research Information System (CCRIS), 2018) are described below.

This data set relates to CCRIS mutagenicity, Ames/micronucleus/aberration tests. The data set can be described thus: CCRIS mutagenicity studies.
[1] abbreviates: Test System: AMES SALMONELLA TYPHIMURIUM, Strain/Indicator: TA98, Metabolic Activation: NONE, Method: STANDARD PLATE.
The mark [2] stands for this setting: Test System: AMES SALMONELLA TYPHIMURIUM, Strain/Indicator: TA98, Metabolic Activation: RAT, LIVER, S-9, AROCLOR 1254, Method: STANDARD PLATE.
[3] abbreviates: Test System: AMES SALMONELLA TYPHIMURIUM, Strain/Indicator: TA100, Metabolic Activation: NONE, Method: STANDARD PLATE.
The mark [4] stands for this setting: Test System: AMES SALMONELLA TYPHIMURIUM, Strain/Indicator: TA100, Metabolic Activation: RAT, LIVER, S-9, AROCLOR 1254, Method: STANDARD PLATE.
Setting [5] is: Test System: AMES SALMONELLA TYPHIMURIUM, Strain/Indicator: TA1535, Metabolic Activation: NONE, Method: STANDARD PLATE.
[6] abbreviates: Test System: AMES SALMONELLA TYPHIMURIUM, Strain/Indicator: TA1537, Metabolic Activation: NONE, Method: STANDARD PLATE.
Where [7] appears, read: Test System: AMES SALMONELLA TYPHIMURIUM, Strain/Indicator: TA100, Metabolic Activation: NONE, Method: PREINCUBATION

Active and inactive are the calls of the source. The rule behind the calls is not given here.

For `CCOC(=O)C1C(C=C(C)C)C1(C)C` (configuration not stated), the mutagenic call under setting [1] was “inactive; negative”; the mutagenic call under setting [2] was “inactive; negative”; the mutagenic call under setting [3] was “inactive; negative”; the mutagenic call under setting [4] was “inactive; negative”; the mutagenic call under setting [5] is “inactive; negative”; the mutagenic call (Test System: AMES SALMONELLA TYPHIMURIUM, Strain/Indicator: TA1535, Metabolic Activation: RAT, LIVER, S-9, AROCLOR 1254, Method: STANDARD PLATE) was “inactive; negative”. For the same compound, the mutagenic call under setting [6] is “inactive; negative”; the mutagenic call (Test System: AMES SALMONELLA TYPHIMURIUM, Strain/Indicator: TA1537, Metabolic Activation: RAT, LIVER, S-9, AROCLOR 1254, Method: STANDARD PLATE) was “inactive; negative”; the mutagenic call (Test System: E. COLI, Strain/Indicator: WP2, Metabolic Activation: NONE, Method: STANDARD PLATE) is “inactive; negative”; the mutagenic call (Test System: E. COLI, Strain/Indicator: WP2, Metabolic Activation: RAT, LIVER, S-9, AROCLOR 1254, Method: STANDARD PLATE) was “inactive; negative”.

As for `C=CCCC1CO1` (configuration not stated), the mutagenic call is “active; positive” under setting [3] and “active; positive” under setting [5].

On to `O=C1[O][Bi][O]c2ccccc21`, for which the mutagenic call (Test System: AMES SALMONELLA TYPHIMURIUM, Strain/Indicator: TA98, Metabolic Activation: HAMSTER, LIVER, S-9, AROCLOR 1254 (10%), Method: PREINCUBATION) is “inactive; negative”; the mutagenic call (Test System: AMES SALMONELLA TYPHIMURIUM, Strain/Indicator: TA98, Metabolic Activation: NONE, Method: PREINCUBATION) was “inactive; negative”; the mutagenic call (Test System: AMES SALMONELLA TYPHIMURIUM, Strain/Indicator: TA98, Metabolic Activation: RAT, LIVER, S-9, AROCLOR 1254 (10%), Method: PREINCUBATION) is “inactive; negative”; the mutagenic call (Test System: AMES SALMONELLA TYPHIMURIUM, Strain/Indicator: TA100, Metabolic Activation: HAMSTER, LIVER, S-9, AROCLOR 1254 (10%), Method: PREINCUBATION) was “inactive; negative”; the mutagenic call under setting [7] is “inactive; negative”; the mutagenic call (Test System: AMES SALMONELLA TYPHIMURIUM, Strain/Indicator: TA100, Metabolic Activation: RAT, LIVER, S-9, AROCLOR 1254 (10%), Method: PREINCUBATION) was “inactive; negative”. Moreover, the mutagenic call reads like this: (Test System: AMES SALMONELLA TYPHIMURIUM, Strain/Indicator: TA1535, Metabolic Activation: HAMSTER, LIVER, S-9, AROCLOR 1254 (10%), Method: PREINCUBATION) “inactive; negative”; (Test System: AMES SALMONELLA TYPHIMURIUM, Strain/Indicator: TA1535, Metabolic Activation: NONE, Method: PREINCUBATION) “inactive; negative”; (Test System: AMES SALMONELLA TYPHIMURIUM, Strain/Indicator: TA1535, Metabolic Activation: RAT, LIVER, S-9, AROCLOR 1254 (10%), Method: PREINCUBATION) “inactive; negative”; (Test System: AMES SALMONELLA TYPHIMURIUM, Strain/Indicator: TA1537, Metabolic Activation: HAMSTER, LIVER, S-9, AROCLOR 1254 (10%), Method: PREINCUBATION) “inactive; negative”; (Test System: AMES SALMONELLA TYPHIMURIUM, Strain/Indicator: TA1537, Metabolic Activation: NONE, Method: PREINCUBATION) “inactive; negative”; (Test System: AMES SALMONELLA TYPHIMURIUM, Strain/Indicator: TA1537, Metabolic Activation: RAT, LIVER, S-9, AROCLOR 1254 (10%), Method: PREINCUBATION) “inactive; negative”.

On to `CC12OOC1Oc1ccccc12` (configuration not stated), for which, under setting [7], the mutagenic call was “active; positive”.

`Cn1cnc2c(NO)ncnc21`: the mutagenic call (Test System: AMES SALMONELLA TYPHIMURIUM, Strain/Indicator: TA97, Metabolic Activation: NONE, Method: STANDARD PLATE) is “inactive; negative”; the mutagenic call (Test System: AMES SALMONELLA TYPHIMURIUM, Strain/Indicator: TA97, Metabolic Activation: RAT, LIVER, S-9, AROCLOR 1254, Method: STANDARD PLATE) is “inactive; negative”; the mutagenic call under setting [1] is “inactive; negative”; the mutagenic call under setting [2] is “active; positive”; the mutagenic call under setting [3] was “inactive; negative”; the mutagenic call under setting [4] was “inactive; negative”.

For `O=NN(CC(=O)O)CC(=O)O`, the mutagenic call reads like this: under setting [1], “inactive; negative”; (Test System: AMES SALMONELLA TYPHIMURIUM, Strain/Indicator: TA98, Metabolic Activation: RAT, LIVER, S-9, Method: STANDARD PLATE) “inactive; negative”; under setting [7], “active; positive”; under setting [3], “inactive; negative”; (Test System: AMES SALMONELLA TYPHIMURIUM, Strain/Indicator: TA100, Metabolic Activation: RAT, LIVER, S-9, Method: STANDARD PLATE) “inactive; negative”; under setting [5], “inactive; negative”. Moreover, the mutagenic call is “inactive; negative” (Test System: AMES SALMONELLA TYPHIMURIUM, Strain/Indicator: TA1535, Metabolic Activation: RAT, LIVER, S-9, Method: STANDARD PLATE); “inactive; negative” under setting [6]; “inactive; negative” (Test System: AMES SALMONELLA TYPHIMURIUM, Strain/Indicator: TA1537, Metabolic Activation: RAT, LIVER, S-9, Method: STANDARD PLATE); “inactive; negative” (Test System: AMES SALMONELLA TYPHIMURIUM, Strain/Indicator: TA1538, Metabolic Activation: NONE, Method: STANDARD PLATE); “inactive; negative” (Test System: AMES SALMONELLA TYPHIMURIUM, Strain/Indicator: TA1538, Metabolic Activation: RAT, LIVER, S-9, Method: STANDARD PLATE).

For the compound `CC[C@H](C)[C@H](NC(=O)[C@H](Cc1ccc(O)cc1)NC(=O)CNC(=O)[C@@H](NC(=O)[C@@H](NC(=O)[C@H](CS)NC(=O)[C@H](CC(N)=O)NC(=O)[C@H](CS)NC(=O)[C@H](C)NC(=O)[C@H](Cc1ccc(O)cc1)NC(=O)[C@H](CCCCN)NC(=O)[C@H](CC(=O)O)NC(=O)[C@H](CC(C)C)NC(=O)[C@H](C)NC(=O)[C@H](CCC(=O)O)NC(=O)[C@@H](NC(=O)[C@H](Cc1ccc(O)cc1)NC(=O)[C@H](CCSC)NC(=O)[C@H](CS)NC(=O)[C@@H](NC(=O)CNC(=O)[C@H](CC(=O)O)NC(=O)[C@H](Cc1cnc[nH]1)NC(=O)[C@H](CC(C)C)NC(=O)[C@H](CS)NC(=O)[C@H](Cc1ccc(O)cc1)NC(=O)CNC(=O)[C@H](CC(=O)O)NC(=O)[C@H](Cc1cnc[nH]1)NC(=O)[C@H](CO)NC(=O)[C@H](CC(C)C)NC(=O)[C@@H]1CCCN1C(=O)[C@H](CS)NC(=O)[C@H](CCC(=O)O)NC(=O)[C@H](CO)NC(=O)[C@H](CC(=O)O)NC(=O)[C@H](CO)NC(=O)[C@@H](N)CC(N)=O)C(C)C)[C@@H](C)CC)C(C)C)C(C)C)C(=O)NCC(=O)N[C@@H](CCC(=O)O)C(=O)N[C@@H](CCCNC(=N)N)C(=O)N[C@@H](CS)C(=O)N[C@@H](CCC(N)=O)C(=O)N[C@@H](Cc1ccc(O)cc1)C(=O)N[C@@H](CCCNC(=N)N)C(=O)N[C@@H](CC(=O)O)C(=O)N[C@@H](CC(C)C)C(=O)N[C@@H](CCCCN)C(=O)N[C@@H](Cc1c[nH]c2ccccc12)C(=O)N[C@@H](Cc1c[nH]c2ccccc12)C(=O)N[C@@H](CCC(=O)O)C(=O)N[C@@H](CC(C)C)C(=O)N[C@@H](CCCNC(=N)N)C(=O)O`, the mutagenic call is, setting by setting: under setting [1], “inactive; negative”; (Test System: AMES SALMONELLA TYPHIMURIUM, Strain/Indicator: TA98, Metabolic Activation: RAT, LIVER, S-9, PHENOBARBITAL AND 5,6-BENZOFLAVONE, Method: STANDARD PLATE) “inactive; negative”; under setting [3], “inactive; negative”; (Test System: AMES SALMONELLA TYPHIMURIUM, Strain/Indicator: TA100, Metabolic Activation: RAT, LIVER, S-9, PHENOBARBITAL AND 5,6-BENZOFLAVONE, Method: STANDARD PLATE) “inactive; negative”; under setting [5], “inactive; negative”; (Test System: AMES SALMONELLA TYPHIMURIUM, Strain/Indicator: TA1535, Metabolic Activation: RAT, LIVER, S-9, PHENOBARBITAL AND 5,6-BENZOFLAVONE, Method: STANDARD PLATE) “inactive; negative”. In addition, the mutagenic call was “inactive; negative” under setting [6]; “inactive; negative” (Test System: AMES SALMONELLA TYPHIMURIUM, Strain/Indicator: TA1537, Metabolic Activation: RAT, LIVER, S-9, PHENOBARBITAL AND 5,6-BENZOFLAVONE, Method: STANDARD PLATE); “inactive; negative” (Test System: E. COLI, Strain/Indicator: WP2 UVRA, Metabolic Activation: NONE, Method: STANDARD PLATE); “inactive; negative” (Test System: E. COLI, Strain/Indicator: WP2 UVRA, Metabolic Activation: RAT, LIVER, S-9, PHENOBARBITAL AND 5,6-BENZOFLAVONE, Method: STANDARD PLATE).
